Assay results reported in US10030027B2, “Soluble guanylate cyclase stimulators” (MERCK SHARP & DOHME CORP., priority 2015, dated 2018).

Assays:
sGC α1/β1 heterodimer = sGC α1/β1 heterodimer (Homo sapiens (Human), UniProt Q02108+Q02153); assay: Cell-based sGC functional assay (cyclic GMP assay for sGC activator: CASA assay); parameters: % Activation: concentration or dose not given beside the values; conditions: CHO-K1/sGC cells; for EC50: inflection point, 4P fit, read-out: IP; for Emax: CHO-K1, activity expressed as percentage of compound A (standard), read-out: % Activation
How it was run: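 CHO-K1 cells stably expressing sGC α1/β1 were pre-incubated with or without 1 μM DETA-NO (30 min, 25 °C), then exposed to compounds for 1 hr at 37 °C with 0.5 mM IBMX. Intracellular cGMP was read by HTRF and expressed as a percentage of a reference heme-dependent activator's maximum.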

[1] = target: human recombinant sGC enzyme (Homo sapiens (Human), UniProt Q02108+Q02153); assay: Size Exclusion Chromatography (SEC) competition binding assay using [3H] Ex-77B as the radioligand; conditions: [3H] Ex-77B radioligand, 24 hours at 37° C.
How it was run: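 Recombinant human sGC binding measured by competition against tritiated Ex-77B radioligand, with non-specific binding defined by 1 μM unlabeled Ex-77B.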

| Compound | EC50 (sGC α1/β1 heterodimer) | Ki [1] | Emax (sGC α1/β1 heterodimer) | % Activation (sGC α1/β1 heterodimer; activity expressed as percentage of compound A (standard)) |
| --- | --- | --- | --- | --- |
| CC(C)(Cn1cc(C2(C)C(=O)Nc3nc(-c4nn(Cc5ccccc5F)c5cc(Cl)ccc45)nc(N)c32)nn1)C(=O)O (single isomer, unassigned) [Example 140A, 3-(4-{4-Amino-2-[6-chloro-1-(2-fluorobenzyl)-1H-indazol-3-yl]-5-methyl-6-oxo-6,7-dihydro-5H-pyrrolo[2,3-d]pyrimidin-5-yl}-1H-1,2,3-triazol-1-yl)-2,2-dimethylpropanoic acid] | 798 nM | 0.227 nM |  |  |
| C[C@@]1(c2ccc(CCc3nn[nH]n3)cc2)C(=O)Nc2nc(-c3nn(Cc4ccccc4F)c4ccccc34)nc(N)c21 [Example 242B, (S)-4-amino-2-[1-(2-fluoro-benzyl)-1H-indazol-3-yl]-5-methyl-5-{4-[2-(2H-tetrazol-5-yl)ethyl]phenyl}-5,7-dihydro-6H-pyrrolo[2,3-d] pyrimidin-6-one] | 3100 nM | 1.11 nM | 107% |  |
| CC(C)(Cc1coc(C2(C)C(=O)Nc3nc(-c4nn(Cc5c(F)cccc5F)c5cc(Cl)ccc45)nc(N)c32)n1)C(=O)O (centres unmarked) [Example 182A, 3-(2-{4-amino-2-[6-chloro-1-(2,6-difluorobenzyl)-1H-indazol-3-yl]-5-methyl-6-oxo-6,7-dihydro-5H-pyrrolo[2,3-d]pyrimidin-5-yl}-1,3-oxazol-4-yl)-2,2-dimethyl-propanoic acid] | 238 nM | 0.124 nM | 92% |  |
| C[C@@]1(c2ccc(CCC(=O)O)cc2)C(=O)Nc2nc(-c3nn(Cc4ccccc4F)c4ncc(F)cc34)nc(N)c21 [Example 23B, (S)-3-(4-{4-amino-2-[5-fluoro-1-(2-fluorobenzyl)-1H-pyrazolo[3,4-b]pyridin-3-yl]-5-methyl-6-oxo-6,7-dihydro-5H-pyrrolo[2,3-d]pyrimidin-5-yl}phenyl)propanoic acid] | 203 nM | 0.099 nM | 109% |  |
| C[C@@]1(c2ccc(CCC(=O)NCC(=O)O)cc2)C(=O)Nc2nc(-c3nn(Cc4ccccc4F)c4ncccc34)nc(N)c21 [Example 100B, (S)-(3-(4-{4-Amino-2-[1-(2-fluorobenzyl)-1H-pyrazolo[3,4-b]pyridin-3-yl]-5-methyl-6-oxo-6,7-dihydro-5H-pyrrolo[2,3-d]pyrimidin-5-yl}phenyl)propanoyl)glycine] | 1800 nM | 0.039 nM | 109% |  |
| CC1CCC(Cn2nc(-c3nc(N)c4c(n3)NC(=O)[C@@]4(C)c3ccc(CCC(=O)O)cc3)c3ccc(Cl)cc32)CC1 (single isomer, unassigned) [Example 5BB] | 330 nM | 0.182 nM |  | 107% |
| C[C@@]1(c2ccc(CCc3nn[nH]n3)cc2)C(=O)Nc2nc(-c3nn(Cc4ccccc4F)c4ncccc34)nc(N)c21 [Example 240B, (S)-4-amino-2-[1-(2-fluoro-benzyl)-1H-pyrazolo[3,4-b]pyridin-3-yl]-5-methyl-5-{4-[2-(2H-tetrazol-5-yl)ethyl]phenyl}-5,7-dihydro-6H-pyrrolo[2,3-d] pyrimidin-6-one] | 749 nM | 0.075 nM | 104% |  |
| CC1(c2nc3cc(C(=O)O)ccc3o2)C(=O)Nc2nc(-c3nn(Cc4ccccc4F)c4cc(Cl)ccc34)nc(N)c21 (centres unmarked) [Example 168B, 2-{4-amino-2-[6-chloro-1-(2-fluorobenzyl)-1H-indazol-3-yl]-5-methyl-6-oxo-6,7-dihydro-5H-pyrrolo[2,3-d]pyrimidin-5-yl}-1,3-benzoxazole-5-carboxylic acid] | 207 nM | 0.164 nM | 141% |  |
| CC(C)(Cc1csc([C@]2(C)C(=O)Nc3nc(-c4nn(Cc5c(F)cccc5F)c5cc(Cl)ccc45)nc(N)c32)n1)C(=O)O [Example 183A, (S)-3-(2-{4-amino-2-[6-chloro-1-(2,6-difluorobenzyl)-1H-indazol-3-yl]-5-methyl-6-oxo-6,7-dihydro-5H-pyrrolo[2,3-d]pyrimidin-5-yl}-1,3-thiazol-4-yl)-2,2-dimethyl-propanoic acid] | 88 nM | 0.076 nM | 111% |  |
| C[C@H](NC(=O)CCc1ccc([C@]2(C)C(=O)Nc3nc(-c4nn(Cc5ccccc5F)c5ncccc45)nc(N)c32)cc1)C(=O)O [Example 103B, (5S)-(3-(4-{4-amino-2-[1-(2-fluorobenzyl)-1H-pyrazolo[3,4-b]pyridin-3-yl]-5-methyl-6-oxo-6,7-dihydro-5H-pyrrolo[2,3-d]pyrimidin-5-yl}phenyl)propanoyl)-L-alanine] | 2950 nM | 0.045 nM | 104% |  |
| CC(C)(Cc1csc([C@]2(C)C(=O)Nc3nc(-c4nn(Cc5ccc(F)cc5)c5cc(Cl)ccc45)nc(N)c32)n1)C(=O)O [Example 174A, (S)-3-(2-{4-amino-2-[6-chloro-1-(4-fluorobenzyl)-1H-indazol-3-yl]-5-methyl-6-oxo-6,7-dihydro-5H-pyrrolo[2,3-d]pyrimidin-5-yl}-1,3-thiazol-4-yl)-2,2-dimethyl-propanoic acid] | 682 nM | 0.173 nM | 121% |  |
| CC(C)(Cc1coc(C2(C)C(=O)Nc3nc(-c4nn(CC5CCCCC5)c5ccccc45)nc(N)c32)n1)C(=O)O (centres unmarked) [Example 228A, 3-(2-{4-amino-2-[1-(cyclohexyl-methyl)-1H-indazol-3-yl]-5-methyl-6-oxo-6,7-dihydro-5H-pyrrolo[2,3-d]pyrimidin-5-yl}-1,3-oxazol-4-yl)-2,2-dimethyl-propanoic acid] | 64 nM | 0.079 nM | 95% |  |
| CC(C)(Cc1coc(C2(C)C(=O)Nc3nc(-c4nn(Cc5cccc(F)c5)c5ccccc45)nc(N)c32)n1)C(=O)O (centres unmarked) [Example 223A, 3-(2-{4-amino-2-[1-(3-fluoro-benzyl)-1H-indazol-3-yl]-5-methyl-6-oxo-6,7-dihydro-5H-pyrrolo[2,3-d]pyrimidin-5-yl}-1,3-oxazol-4-yl)-2,2-dimethyl-propanoic acid] | 210 nM | 0.05 nM | 119% |  |
| CC1CCC(Cn2nc(-c3nc(N)c4c(n3)NC(=O)[C@@]4(C)c3nc(CC(C)(C)C(=O)O)cs3)c3ccc(F)cc32)CC1 (single isomer, unassigned) [Example 136AA] | 11 nM | 0.252 nM | 78.2% |  |
| CC1(c2ccc(CCC(=O)O)c(Br)c2)C(=O)Nc2nc(-c3nn(CCC(F)(F)C(F)(F)F)c4cc(Cl)ccc34)nc(N)c21 (centres unmarked) [Example 4B, 3-(4-{4-amino-2-[6-chloro-1-(3,3,4,4,4-pentafluoro-butyl)-1H-indazol-3-yl]-5-methyl-6-oxo-6,7-dihydro-5H-pyrrolo[2,3-d]pyrimidin-5-yl}-2-bromophenyl)propanoic acid] | 294 nM | 0.391 nM | 126% |  |
| CC(C)(Cc1coc(C2(C)C(=O)Nc3nc(-c4nn(Cc5ccccc5F)c5ccccc45)nc(N)c32)n1)c1nn[nH]n1 (centres unmarked) [Example 248B, 4-Amino-2-[1-(2-fluorobenzyl)-1H-indazol-3-yl]-5-methyl-5-{4-[2-methyl-2-(2H-tetrazol-5-yl)propyl]oxazol-2-yl}-5,7-dihydro-6H-pyrrolo[2,3-d]pyrimidin-6-one] | 116 nM | 0.048 nM | 106% |  |
| CC(C)(Cc1csc([C@]2(C)C(=O)Nc3nc(-c4nn(Cc5cccc(F)c5)c5cc(F)ccc45)nc(N)c32)n1)C(=O)O [Example 194A, (S)-3-(2-{4-amino-2-[6-fluoro-1-(3-fluorobenzyl)-1H-indazol-3-yl]-5-methyl-6-oxo-6,7-dihydro-5H-pyrrolo[2,3-d]pyrimidin-5-yl}-1,3-thiazol-4-yl)-2,2-dimethyl-propanoic acid] | 73 nM | 0.041 nM | 128% |  |
| CC(C)(CCc1coc(C2(C)C(=O)Nc3nc(-c4nn(Cc5ccccc5F)c5ncccc45)nc(N)c32)n1)C(=O)O (centres unmarked) [Example 206B, 4-(2-{4-amino-2-[1-(2-fluorobenzyl)-1H-pyrazolo[3,4-b]pyridin-3-yl]-5-methyl-6-oxo-6,7-dihydro-5H-pyrrolo[2,3-d]pyrimidin-5-yl}-1,3-oxazol-4-yl)-2,2-dimethyl-butanoic acid] | 549 nM | 0.798 nM | 113% |  |
| Cc1ccnc(Cn2nc(-c3nc(N)c4c(n3)NC(=O)[C@@]4(C)c3nc(CC(C)(C)C(=O)O)cs3)c3ccc(Cl)cc32)c1F [Example 216A, (S)-3-(2-{4-amino-2-[6-chloro-1-((3-fluoro-4-methyl-pyridin-2-yl)methyl)-1H-indazol-3-yl]-5-methyl-6-oxo-6,7-dihydro-5H-pyrrolo[2,3-d]pyrimidin-5-yl} 1,3-thiazol-4-yl)-2,2-dimethyl-propanoic acid] | 678 nM | 0.11 nM | 132% |  |
| CC(C)(Cc1csc([C@]2(C)C(=O)Nc3nc(-c4nn(Cc5ccccc5F)c5ncccc45)nc(N)c32)n1)c1nn[nH]n1 [Example 241A, (S)-4-amino-2-[1-(2-fluoro-benzyl)-1H-pyrazolo[3,4-b]pyridin-3-yl]-5-methyl-5-{4-[2-methyl-2-(2H-tetrazol-5-yl)propyl]-1,3-thiazol-2-yl}-5,7-dihydro-6H-pyrrolo[2,3-d] pyrimidin-6-one] | 403 nM | 0.121 nM | 94.8% |  |
| CC1(c2cccc(C(=O)O)c2)C(=O)Nc2nc(-c3nn(Cc4ccccc4F)c4cc(Cl)ccc34)nc(N)c21 (centres unmarked) [Example 169B, 3-{4-amino-2-[6-chloro-1-(2-fluorobenzyl)-1H-indazol-3-yl]-5-methyl-6-oxo-6,7-dihydro-5H-pyrrolo[2,3-d]pyrimidin-5-yl} benzoic acid] | 159 nM | 0.104 nM | 90.3% |  |
